{
  "source": "patent US8748377B2",
  "about": "“Pharmaceutical compositions” (GlaxoSmithKline LLC, priority 2008, dated 2014)",
  "key": {"type 2 diabetic subjects": {"test_system": "type 2 diabetic subjects", "assay": "Phase 2 randomized, placebo-controlled 16-week trial of weekly, biweekly and monthly albiglutide: glycemic efficacy (A1C, FPG, weight)", "format": "in vivo, human", "conditions": "for Weight loss: across albiglutide groups", "from_the_text": "Main outcome measure was change from baseline A1C, week 16 vs placebo.\nMen and women of non-childbearing potential from 18-75 years of age were eligible for inclusion if diagnosed with type 2 diabetes ≧3 months before screening. Subjects were drug-naïve (diet & exercise) or treated with diet and exercise plus metformin as monotherapy stable for >3 months before prescreening (1 week prior to screening visit). […] Additional inclusion criteria included: BMI≧20 and ≦40 kg/m^2 and A1C at screening ≧7% and ≦10%.\nA1C and fasting plasma glucose (FPG) measurements were performed at Screening, Baseline, and at Weeks 2 (FPG Only), 4, 5, 7, 8, 9, 12, 15, and 16.\nThe primary efficacy endpoint was change from baseline A1C at week 16 vs placebo across different doses within each schedule (weekly, biweekly, and monthly). The primary analysis was an ANCOVA model with main effects for treatment group and prior metformin therapy, adjusting for baseline A1C. Dose response was evaluated using contrasts within the ANCOVA model framework. Pairwise comparisons were performed in the same ANCOVA model. Secondary endpoints were analyzed similarly. Responder analysis and incidence of hypoglycemia were summarized by group statistics. […] Safety and tolerability data were collected categorically.\nComparisons were made on the intent-to-treat population, defined as all randomly assigned subjects with at least one post-baseline assessment of the primary endpoint, using last-observation carried forward. The safety population included all randomized patients who received at least one dose of any medication after being randomized. An interim analysis was conducted at 8 weeks for administrative purposes by an independent statistical analysis group; blinding was retained for study investigators and study personnel with daily operational responsibility.\nPatients were also assessed for reduction in fasting plasma glucose (FPG) and HbA1c reduction based on background metformin (MET) treatment."}, "[1]": {"assay": "28-day study in Japanese subjects: pharmacokinetics", "format": "in vivo, human", "conditions": "sc abdomen", "description": "(§1) In the 100 mg monthly group, most common AEs were flatulence (n=3, 38%), vomiting (n=3, 38%) and nausea (n=2, 25%)."}, "[2]": {"test_system": "Japanese subjects with type 2 diabetes", "assay": "28-day single-blind placebo-controlled study in Japanese subjects: pharmacodynamics (FPG, AUC0-4 glucose, A1C)", "format": "in vivo, human"}, "[3]": {"conditions": "Baggio, et al. Diabetes 53:2492-2500, 2004; cited from earlier work"}, "[4]": {"assay": "Phase 2 trial: pharmacokinetics of albiglutide (plasma ELISA, population PK with NONMEM)", "format": "in vivo, human", "description": "Adverse event assessments and safety analyses (including electrocardiograms, vital sign measurements and physical exams) were conducted throughout the study. Nausea and vomiting were monitored for occurrence and duration. Immunogenicity assessments were performed with samples taken at baseline and at weeks 1, 4, 8, and 12, and 16. Samples were screened for anti-albiglutide antibodies via ELISA (Matthews, et al. J Clin Endocrinol Metab. 2008; DOI: 10.1210/jc.2008-1518). […] Population PK analysis was performed using a nonlinear mixed-effect modelling approach with NONMEM software (Icon Development Solutions, Ellicott City, Md.)."}, "[5]": {"test_system": "Japanese subjects with type 2 diabetes", "assay": "28-day study in Japanese subjects: safety/tolerability", "format": "in vivo, human", "description": "as §1"}, "[6]": {"conditions": "100 mg monthly sc, week 16, listed as ALB"}, "[7]": {"conditions": "100 mg monthly sc, week 16, listed as albiglutide"}},
  "note": "Values joined by “and” are separate entries in the source; they are usually repeats but may differ in a detail not shown here. Identical values can stand only once. Marks after values point to notes of the source that are not given here.",
  "data": [
    {"substance": "Albiglutide: Long-acting GLP-1 receptor agonist: two DPP-4-resistant human GLP-1 analogs (GLP-1(7-36)(A8G)) fused to human albumin; SEQ ID NO:1", "values": [
      {"measurement": "A1C change from baseline (mean)", "setting": "type 2 diabetic subjects; 50 mg monthly sc, week 16, listed as ALB", "result": "−0.6 ± 1.0", "unit": "%"},
      {"measurement": "MET patients achieving HbA1c <7%", "setting": "type 2 diabetic subjects; 100 mg monthly", "result": 46, "unit": "%"},
      {"measurement": "A1C change from baseline (mean)", "setting": "type 2 diabetic subjects; 100 mg monthly sc, week 16", "result": "−0.87 ± %"},
      {"measurement": "A1C change from baseline (mean)", "setting": "type 2 diabetic subjects; [6]", "result": "−0.9 ± 0.9", "unit": "%"},
      {"measurement": "FPG change from baseline (mean)", "setting": "type 2 diabetic subjects; [6]", "result": "-1.22 ± 3.5", "unit": "mmol/L"},
      {"measurement": "Subjects achieving A1C < 7.0%", "setting": "type 2 diabetic subjects; [6]", "result": 48.4, "unit": "%"},
      {"measurement": "A1C change from baseline (mean)", "setting": "type 2 diabetic subjects; [7]", "result": "−0.87% and −0.9%"},
      {"measurement": "FPG change from baseline (mean)", "setting": "type 2 diabetic subjects; [7]", "result": -1.22, "unit": "mmol/L"},
      {"measurement": "Subjects achieving A1C < 7.0%", "setting": "type 2 diabetic subjects; [7]", "result": 48, "unit": "%"},
      {"measurement": "HbA1c reduction in MET subjects", "setting": "type 2 diabetic subjects; 100 mg monthly, 16 weeks", "result": "−0.77", "unit": "%"},
      {"measurement": "FPG reduction in background metformin (MET) subjects", "setting": "type 2 diabetic subjects; 100 mg monthly, after 16 weeks", "result": -1.80, "unit": "mmol/L"},
      {"measurement": "A1C reduction compared with placebo (ANCOVA model)", "setting": "type 2 diabetic subjects; 100 mg monthly, week 16", "result": "−0.60", "unit": "%"},
      {"measurement": "FPG change from baseline compared with placebo", "setting": "type 2 diabetic subjects; 100 mg monthly, week 16", "result": -1.17, "unit": "mmol/L"},
      {"measurement": "Mean systolic and diastolic blood pressure", "setting": "type 2 diabetic subjects; 16-week trial", "result": "tended to reduce"},
      {"measurement": "Plasma lipoprotein profile", "setting": "type 2 diabetic subjects; 16-week trial", "result": "did not significantly change"},
      {"measurement": "Weight loss", "setting": "type 2 diabetic subjects; MET group, 16 weeks", "result": "−0.4 to −2.1", "unit": "kg"},
      {"measurement": "Average weight loss", "setting": "type 2 diabetic subjects; highest dose regimens in each timing schedule, 16 weeks", "result": "−1.1 to −1.7", "unit": "kg"},
      {"measurement": "A1C reduction from a mean baseline A1C of 8.0%", "setting": "type 2 diabetic subjects; maximum doses of each schedule (30 mg weekly, 50 mg biweekly, 100 mg monthly)", "result": "0.8-0.9%"},
      {"measurement": "Weight loss", "setting": "type 2 diabetic subjects; overall population, 16 weeks", "result": "−0.9 to −1.8", "unit": "kg"},
      {"measurement": "β-cell function (assessed by HOMA-B)", "setting": "type 2 diabetic subjects; subjects receiving albiglutide", "result": "Small improvements"},
      {"measurement": "CL/F", "setting": "[1]", "result": 68.7, "unit": "mL/h"},
      {"measurement": "Plasma t1/2", "setting": "[1]", "result": 127, "unit": "h"},
      {"measurement": "V/F", "setting": "[1]", "result": 12.6, "unit": "L"},
      {"measurement": "A1C, PBO-adjusted change from baseline (LS Means Difference)", "setting": "[2]; 15 mg weekly, day 29", "result": "−0.58*/ %"},
      {"measurement": "FPG, PBO-adjusted change from baseline (LS Means Difference)", "setting": "[2]; 15 mg weekly, day 29", "result": "−34.5* mg/dL"},
      {"measurement": "A1C, PBO-adjusted change from baseline (LS Means Difference)", "setting": "[2]; 15 mg weekly, day 43", "result": "−0.87* %"},
      {"measurement": "A1C, PBO-adjusted change from baseline (LS Means Difference)", "setting": "[2]; 30 mg weekly, day 29", "result": "−0.57*/ %"},
      {"measurement": "FPG, PBO-adjusted change from baseline (LS Means Difference)", "setting": "[2]; 30 mg weekly, day 29", "result": "−35.6* mg/dL"},
      {"measurement": "A1C, PBO-adjusted change from baseline (LS Means Difference)", "setting": "[2]; 30 mg weekly, day 43", "result": "−0.78* %"},
      {"measurement": "A1C, PBO-adjusted change from baseline (LS Means Difference)", "setting": "[2]; 50 mg biweekly, day 29", "result": "−0.63*/ %"},
      {"measurement": "FPG, PBO-adjusted change from baseline (LS Means Difference)", "setting": "[2]; 50 mg biweekly, day 29", "result": "−31.3* mg/dL"},
      {"measurement": "A1C, PBO-adjusted change from baseline (LS Means Difference)", "setting": "[2]; 50 mg biweekly, day 43", "result": "−0.79* %"},
      {"measurement": "A1C, PBO-adjusted change from baseline (LS Means Difference)", "setting": "[2]; 100 mg monthly, day 29", "result": "−0.51*/ %"},
      {"measurement": "FPG, PBO-adjusted change from baseline (LS Means Difference)", "setting": "[2]; 100 mg monthly, day 29", "result": -13.2, "unit": "mg/dL"},
      {"measurement": "A1C, PBO-adjusted change from baseline (LS Means Difference)", "setting": "[2]; 100 mg monthly, day 43", "result": "−0.59* %"},
      {"measurement": "Onset of improvement of FPG and weighted mean AUC0-4 glucose", "setting": "[2]; Japanese subjects", "result": "improved as early as day 3"},
      {"measurement": "Permeability to the central nervous system", "setting": "[3]", "result": "relatively impermeant"},
      {"measurement": "Steady state achieved after", "setting": "[4]; 30 mg weekly", "result": "4-5 doses"},
      {"measurement": "Tmax", "setting": "[4]; albiglutide sc", "result": "~72", "unit": "h"},
      {"measurement": "Half-life", "setting": "[4]; sc, type 2 diabetic subjects", "result": "~120", "unit": "h"},
      {"measurement": "Time to steady state levels after the first dose", "setting": "[4]; sc, type 2 diabetic subjects", "result": "4-5 weeks"},
      {"measurement": "Half-life", "setting": "[4]; sc, type 2 diabetic subjects, listed as SEQ ID NO:1", "result": "about 5 days"},
      {"measurement": "Nausea (AE incidence)", "setting": "[5]; 100 mg monthly group, n=2", "result": 25, "unit": "%"},
      {"measurement": "Flatulence (AE incidence)", "setting": "[5]; 100 mg monthly group, n=3", "result": 38, "unit": "%"},
      {"measurement": "Vomiting (AE incidence)", "setting": "[5]; 100 mg monthly group, n=3", "result": 38, "unit": "%"},
      {"measurement": "Serious AEs", "setting": "[5]; all doses, 28 days", "result": "No serious AEs"},
      {"measurement": "Tolerability", "setting": "[5]; all doses, 28 days", "result": "generally well-tolerated"}
    ]}
  ]
}
